“And” between values parts separate entries of the source, which are not always exact repeats. Equal entries are not always repeated. Structures can show the parent of a compound that is named as a salt.
How the values were obtained:
[1] = tested on: secretion of acid in the stomach; experiment: Inhibition of the secretion of acid in the stomach (pylorus-ligated rats); format: in vivo, rats (Donryu male); conditions: duodenum, 6 h; for Acidity / Gastric juice secreted / Pepsin activity / Inhibition rate (acidity) / Inhibition rate (amount of acid discharged) / Inhibition rate (gastric juice secreted) / Inhibition rate (pepsin activity) / Amount of acid discharged: five rats
Description: The pylorus was ligated. Immediately thereafter, a test sample was placed in the duodenum and the abdomen was closed. Six hour after the administration of the test sample, the stomach was taken out under […] anesthesia and the gastric juice was taken out. The gastric juice was centrifuged. The quantity, acidity and pepsin activity of the supernatant liquid were determined. […] The amount of the acid discharged per hour was calculated by multiplying the acidity by the quantity of the juice. Pepsin activity was determined by Anson's method [J. gen. […] The results of the tests of TAS are the averages of the group consisting of ten rats.

[2] = Antiulcer effects (pylorus-ligated rats); format: in vivo, rats (Donryu); conditions: for Inhibition rate (ulcer): duodenum, 8 h
Description: Donryu rats weighing 200 to 230 g were used. Each group consisted of 6 rats. After fasting for 72 h, the rats were subjected to an abdominal operation under etheral anesthesia. The pylorus was ligated. Immediately thereafter, a given dose of a test sample was placed in the duodenum. Thereafter, neither food nor water was given. After 8 h, the stomach was taken out under etheral anesthesia and immersed in 1% formalin solution for 10 min. The stomach was cut along the greater curvature. The area of ulcer formed in the forestomach was determined by an anatomico-microscopicobservation (magnification: ×10). The rate of control of the ulcer (%) was calculated as compared with a control.

Compound: Nc1nnc(NCCCOc2cccc(CN3CCCCC3)c2)s1 [TAS, 2-N-{3-[3-(1-piperidinomethyl)phenoxy]propyl}-amino-5-amino-1,3,4-thiadiazole hydrochloride]
- Rate of control of the amount of acid discharged ([1]; Table 5, 6.7 mg/kg, ten rats): 85.7%
- Rate of control of the amount of pepsin discharged ([1]; Table 5, 6.7 mg/kg, ten rats): 13.6%
- Rate of inhibition of acidity ([1]; Table 5, 6.7 mg/kg, ten rats): 67.4%
- Rate of inhibition of the secretion of gastric juice ([1]; Table 5, 6.7 mg/kg, ten rats): 57.7%
- Rate of control of the amount of acid discharged ([1]; Table 5, 20.0 mg/kg, ten rats): 91.4%
- Rate of control of the amount of pepsin discharged ([1]; Table 5, 20.0 mg/kg, ten rats): 25.8%
- Rate of inhibition of acidity ([1]; Table 5, 20.0 mg/kg, ten rats): 74.0%
- Rate of inhibition of the secretion of gastric juice ([1]; Table 5, 20.0 mg/kg, ten rats): 65.4%
- Rate of control of the amount of acid discharged ([1]; Table 5, 60.0 mg/kg, ten rats): 100%
- Rate of control of the amount of pepsin discharged ([1]; Table 5, 60.0 mg/kg, ten rats): 86.4%
- Rate of inhibition of acidity ([1]; Table 5, 60.0 mg/kg, ten rats): 100%
- Rate of inhibition of the secretion of gastric juice ([1]; Table 5, 60.0 mg/kg, ten rats): 82.7%
- Rate of control of the amount of acid discharged ([1]; Table 6, 0.7 mg/kg): 40.2%
- Rate of control of the amount of pepsin discharged ([1]; Table 6, 0.7 mg/kg): -1.3%
- Rate of inhibition of acidity ([1]; Table 6, 0.7 mg/kg): 22.4%
- Rate of inhibition of the secretion of gastric juice ([1]; Table 6, 0.7 mg/kg): 23.51%
- Rate of control of the amount of acid discharged ([1]; Table 6, 6.7 mg/kg): 81.5%
- Rate of control of the amount of pepsin discharged ([1]; Table 6, 6.7 mg/kg): 15.2%
- Rate of inhibition of acidity ([1]; Table 6, 6.7 mg/kg): 65.7%
- Rate of inhibition of the secretion of gastric juice ([1]; Table 6, 6.7 mg/kg): 52.9%
- Rate of control of the amount of acid discharged ([1]; Table 6, 20.0 mg/kg): 91.5%
- Rate of control of the amount of pepsin discharged ([1]; Table 6, 20.0 mg/kg): 30.4%
- Rate of inhibition of acidity ([1]; Table 6, 20.0 mg/kg): 75.0%
- Rate of inhibition of the secretion of gastric juice ([1]; Table 6, 20.0 mg/kg): 66.7%
- Inhibition rate (ulcer) ([2]; 6.3 mg/kg): 60.0%
- Inhibition rate (ulcer) ([2]; 12.5 mg/kg): 90.0%
- Inhibition rate (ulcer) ([2]; 25.0 mg/kg): 95.0%
- Inhibition rate (ulcer) ([2]; 50.0 mg/kg): 100%
- antiulcer effects compared with 200 mg/kg of cimetidine or ranitidine ([2]; 12.5 to 50 mg/kg): far superior

Compound: CN/C(=N/CCSCc1nc[nH]c1C)NC#N [cimetidine, reference compound]
- Acidity ([1]; 6.7 mg/kg): 85.0 meq H^+ /l and 76.0 meq H^+ /l
- Gastric juice secreted ([1]; 6.7 mg/kg): 5.4 mL and 5.0 mL
- Pepsin activity ([1]; 6.7 mg/kg): 7.0 mg/mL and 5.5 mg/mL
- Acidity ([1]; 20.0 mg/kg): 77.0 meq H^+ /l and 79.0 meq H^+ /l
- Gastric juice secreted ([1]; 20.0 mg/kg): 4.8 mL and 4.5 mL
- Inhibition rate (acidity) ([1]; 20.0 mg/kg): 5.4% and 11.0%
- Inhibition rate (amount of acid discharged) ([1]; 20.0 mg/kg): 31.0% and 29.0%
- Inhibition rate (gastric juice secreted) ([1]; 20.0 mg/kg): 17.0% and 29.0%
- Inhibition rate (pepsin activity) ([1]; 20.0 mg/kg): 0% and 7.3%
- Pepsin activity ([1]; 20.0 mg/kg): 6.2 mg/mL and 5.1 mg/mL
- Acidity ([1]; 60.0 mg/kg): 61.0 meq H^+ /l and 62.0 meq H^+ /l
- Gastric juice secreted ([1]; 60.0 mg/kg): 3.7 mL and 4.5 mL
- Inhibition rate (acidity) ([1]; 60.0 mg/kg): 25.0% and 31.0%
- Inhibition rate (amount of acid discharged) ([1]; 60.0 mg/kg): 55.0% and 45.0%
- Inhibition rate (gastric juice secreted) ([1]; 60.0 mg/kg): 36.0% and 29.0%
- Pepsin activity ([1]; 60.0 mg/kg): 6.3 mg/mL
- Amount of acid discharged ([1]; Table 3, 6.7 mg/kg): 79.0 μEq/H
- Amount of acid discharged ([1]; Table 3, 20.0 mg/kg): 57.0 μEq/H
- Amount of acid discharged ([1]; Table 3, 60.0 mg/kg): 38.0 μEq/H
- Amount of acid discharged ([1]; Table 4, 6.7 mg/kg): 67.0 μEq/h
- Amount of acid discharged ([1]; Table 4, 20.0 mg/kg): 61.0 μEq/h
- Amount of acid discharged ([1]; Table 4, 60.0 mg/kg): 47.0 μEq/h
- Rate of control of the amount of acid discharged ([1]; Table 5, 6.7 mg/kg, ten rats): 2.5%
- Rate of control of the amount of pepsin discharged ([1]; Table 5, 6.7 mg/kg, ten rats): -6.1%
- Rate of inhibition of acidity ([1]; Table 5, 6.7 mg/kg, ten rats): 2.9%
- Rate of inhibition of the secretion of gastric juice ([1]; Table 5, 6.7 mg/kg, ten rats): 3.8%
- Rate of control of the amount of acid discharged ([1]; Table 5, 20.0 mg/kg, ten rats): 25.6%
- Rate of control of the amount of pepsin discharged ([1]; Table 5, 20.0 mg/kg, ten rats): 6.1%
- Rate of inhibition of acidity ([1]; Table 5, 20.0 mg/kg, ten rats): 12.4%
- Rate of inhibition of the secretion of gastric juice ([1]; Table 5, 20.0 mg/kg, ten rats): 7.7%
- Rate of control of the amount of acid discharged ([1]; Table 5, 60.0 mg/kg, ten rats): 51.1%
- Rate of control of the amount of pepsin discharged ([1]; Table 5, 60.0 mg/kg, ten rats): 4.5%
- Rate of inhibition of acidity ([1]; Table 5, 60.0 mg/kg, ten rats): 30.9%
- Rate of inhibition of the secretion of gastric juice ([1]; Table 5, 60.0 mg/kg, ten rats): 28.8%
- Inhibition rate (ulcer) ([2]; 100 mg/kg): 10%
- Inhibition rate (ulcer) ([2]; 200 mg/kg): 60%

Compound: CNc1nnc(NCCCOc2cccc(CN3CCCCC3)c2)s1 [H2 --33, 2-N-{3-[3-(1-piperidinomethyl)phenoxy]-propyl}amino-5-methylamino-1,3,4-thiadiazole]
- Acidity ([1]; 6.7 mg/kg): 70.0 meq H^+ /l
- Gastric juice secreted ([1]; 6.7 mg/kg): 4.8 mL
- Inhibition rate (acidity) ([1]; 6.7 mg/kg): 14.0%
- Inhibition rate (amount of acid discharged) ([1]; 6.7 mg/kg): 35.0%
- Inhibition rate (gastric juice secreted) ([1]; 6.7 mg/kg): 17.0%
- Inhibition rate (pepsin activity) ([1]; 6.7 mg/kg): -3.2%
- Pepsin activity ([1]; 6.7 mg/kg): 6.4 mg/mL
- Acidity ([1]; 20.0 mg/kg): 52.0 meq H^+ /l
- Gastric juice secreted ([1]; 20.0 mg/kg): 2.5 mL
- Inhibition rate (acidity) ([1]; 20.0 mg/kg): 36.0%
- Inhibition rate (amount of acid discharged) ([1]; 20.0 mg/kg): 70.0%
- Inhibition rate (gastric juice secreted) ([1]; 20.0 mg/kg): 57.0%
- Inhibition rate (pepsin activity) ([1]; 20.0 mg/kg): 0%
- Pepsin activity ([1]; 20.0 mg/kg): 6.2 mg/mL
- Acidity ([1]; 60.0 mg/kg): 24.0 meq H^+ /l
- Gastric juice secreted ([1]; 60.0 mg/kg): 2.9 mL
- Inhibition rate (acidity) ([1]; 60.0 mg/kg): 70.0%
- Inhibition rate (amount of acid discharged) ([1]; 60.0 mg/kg): 88.0%
- Inhibition rate (gastric juice secreted) ([1]; 60.0 mg/kg): 50.0%
- Inhibition rate (pepsin activity) ([1]; 60.0 mg/kg): 21.0%
- Pepsin activity ([1]; 60.0 mg/kg): 4.9 mg/mL
- Amount of acid discharged ([1]; Table 3, 6.7 mg/kg): 54.0 μEq/H
- Amount of acid discharged ([1]; Table 3, 20.0 mg/kg): 25.0 μEq/H
- Amount of acid discharged ([1]; Table 3, 60.0 mg/kg): 10.0 μEq/H

Reference: patent US4587254A, “1,3,4-thiadiazole derivatives, process for the production thereof and use thereof as antiulcer agent” (Wakamoto Pharmaceutical Co., Ltd., priority 1983, dated 1986)
